Source: patent publication US20230242585A1, “IMMUNOMODULATORS” (Bristol-Myers Squibb Company, priority 2020, published 2023)
Starred links: 1 amine or outer side, 2 acyl side, 3 side chain; linkers in the order of their positions; H or OH if unused. Positions of bridges follow the written chain, without caps; N, C: chain ends. Non-standard residues stand in square brackets, D forms with d. Residues, ends and D or L forms follow the SMILES beside them. X30 = O=C([C@H](CCNC[C@H](O)[C@@H](O)[C@H](O[C@H]1O[C@H](CO)[C@@H](O)[C@H](O)[C@H]1O)[C@H](O)CO)N[*:1])[*:2]; X29 = O=C([C@H](CNC[C@H](O)[C@@H](O)[C@H](O[C@H]1O[C@H](CO)[C@@H](O)[C@H](O)[C@H]1O)[C@H](O)CO)N[*:1])[*:2]; X25 = CC(=O)N[C@@H](CNCC[C@H](N[*:1])C(=O)[*:2])[C@@H](O)[C@H](O)[C@H](O)CO; X24 = CC(=O)N[C@@H](CNC[C@H](N[*:1])C(=O)[*:2])[C@@H](O)[C@H](O)[C@H](O)CO; X1 = O=C([C@H](CNC[C@H](O)[C@H](O)[C@H](O)[C@H](O)CO)N[*:1])[*:2]; X68 = O=C([C@H](CCNC[C@@H](O)[C@H](O)[C@H](O)CO)N[*:1])[*:2]; X67 = O=C([C@H](CNC[C@@H](O)[C@H](O)[C@H](O)CO)N[*:1])[*:2]; Trp(1-CH2COOH) = N[C@@H](Cc1cn(CC(=O)O)c2ccccc12)C(=O)O; Hyp = O=C(O)[C@@H]1C[C@@H](O)CN1; NMeNle = CCCC[C@H](NC)C(=O)O; NMeA = CN[C@@H](C)C(=O)O; Dab = NCC[C@H](N)C(=O)O

What follows are compounds tested against T1, PD-1/PD-L1 (Homo sapiens, UniProt Q9NZQ7) (assay: PD-1/PD-L1 Homogenous Time-Resolved Fluorescence (HTRF) binding assay). Details: PD-L1-His 10 nM, PD-1-Ig 20 nM.
T1 construct: TVMV protease site (linker) (C); made in house; host or cells: HEK293T cells
T1 sequence (Q9NZQ7 18-239): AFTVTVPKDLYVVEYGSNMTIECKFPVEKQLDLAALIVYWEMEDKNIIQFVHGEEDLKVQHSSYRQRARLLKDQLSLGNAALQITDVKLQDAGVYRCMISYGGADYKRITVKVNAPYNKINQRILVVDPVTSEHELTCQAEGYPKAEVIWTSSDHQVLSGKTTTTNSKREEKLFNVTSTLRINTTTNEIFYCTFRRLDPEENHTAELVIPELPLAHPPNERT
Text: The ability of the compounds of formula (I) to bind to PD-L1 was investigated using a PD-1/PD-L1 Homogenous Time-Resolved Fluorescence (HTRF) binding assay.
The interaction of PD-1 and PD-L1 can be assessed using soluble, purified preparations of the extracellular domains of the two proteins. The PD-1 and PD-L1 protein extracellular domains were expressed as fusion proteins with detection tags, for PD-1, the tag was the Fc portion of Immunoglobulin (PD-1-Ig) and for PD-L1 it was the 6 histidine motif (PD-L1-His). All binding studies were performed in an HTRF assay buffer consisting of dPBS supplemented with 0.1% […] bovine serum albumin and 0.05% (v/v) Tween-20. For the h/PD-L1-His binding assay, inhibitors were pre-incubated with PD-L1-His (10 nM final) for 15 m in 4 µl of assay buffer, followed by addition of PD-1-Ig (20 nM final) in 1 µl of assay buffer and further incubation for 15 m. HTRF detection was achieved using europium crypate-labeled anti-Ig (1 nM final) and allophycocyanin (APC) labeled anti-His (20 nM final). Antibodies were diluted in HTRF detection buffer and 5 µl was dispensed on top of the binding reaction. The reaction mixture was allowed to equilibrate for 30 minutes and the resulting signal (665 nm/620 nm ratio) was obtained using an EnVision fluorometer. Additional binding assays were established between the human proteins PD-1-Ig/PD-L2-His (20 & 5 nM, respectively) and CD80-His/PD-L1-Ig (100 & 10 nM, respectively).
Recombinant Proteins: Human PD-1 (25-167) with a C-terminal human Fc domain of immunoglobulin G (Ig) epitope tag [hPD-1 (25-167)-3S-IG] and human PD-L1 (18-239) with a C-terminal His epitope tag [hPD-L1(18-239)-TVMV-His] were expressed in HEK293T cells and purified sequentially by ProteinA affinity chromatography and size exclusion chromatography. Human PD-L2-His and CD80-His was obtained through commercial sources.
Table 1 lists the IC50 values for representative examples of this disclosure measured in the PD-1/PD-L1 Homogenous Time-Resolved Fluorescence (HTRF) binding assay.

| SMILES | IC50 |
| --- | --- |
| CCCC[C@H]1C(=O)N(C)[C@@H](CCCC)C(=O)N[C@@H](CC(C)C)C(=O)N[C@H](C(=O)NCC(N)=O)CSCC(=O)N[C@@H](Cc2ccc(O)cc2)C(=O)N(C)[C@@H](C)C(=O)N[C@@H](CC(N)=O)C(=O)N2CCC[C@H]2C(=O)N[C@@H](CNC[C@H](O)[C@H](O)[C@H](O)[C@H](O)CO)C(=O)N[C@@H](CC(C)C)C(=O)N2C[C@H](O)C[C@H]2C(=O)N[C@@H](Cc2c[nH]c3ccccc23)C(=O)N[C@@H](CCN)C(=O)N[C@@H](Cc2cn(CC(=O)O)c3ccccc23)C(=O)N1C [Example 2007] ({CH2CO}-Y[NMeA]NP[X1]L[Hyp]W[Dab][Trp(1-CH2COOH)][NMeNle][NMeNle]LCG-NH2; thioether N-14) | 5.1 nM |
| CCCC[C@H]1C(=O)N(C)[C@@H](CCCC)C(=O)N[C@@H](CC(C)C)C(=O)N[C@H](C(=O)NCC(N)=O)CSCC(=O)N[C@@H](Cc2ccc(O)cc2)C(=O)N(C)[C@@H](C)C(=O)N[C@@H](CC(N)=O)C(=O)N2CCC[C@H]2C(=O)N[C@@H](CNC[C@H](NC(C)=O)[C@@H](O)[C@H](O)[C@H](O)CO)C(=O)N[C@@H](CC(C)C)C(=O)N2C[C@H](O)C[C@H]2C(=O)N[C@@H](Cc2c[nH]c3ccccc23)C(=O)N[C@@H](CCNC[C@H](NC(C)=O)[C@@H](O)[C@H](O)[C@H](O)CO)C(=O)N[C@@H](Cc2cn(CC(=O)O)c3ccccc23)C(=O)N1C [Example 2009] ({CH2CO}-Y[NMeA]NP[X24]L[Hyp]W[X25][Trp(1-CH2COOH)][NMeNle][NMeNle]LCG-NH2; thioether N-14) | 5.7 nM |
| CCCC[C@H]1C(=O)N(C)[C@@H](CCCC)C(=O)N[C@@H](CC(C)C)C(=O)N[C@H](C(=O)NCC(N)=O)CSCC(=O)N[C@@H](Cc2ccc(O)cc2)C(=O)N(C)[C@@H](C)C(=O)N[C@@H](CC(N)=O)C(=O)N2CCC[C@H]2C(=O)N[C@@H](CNC[C@H](O)[C@@H](O)[C@H](O[C@H]2O[C@H](CO)[C@@H](O)[C@H](O)[C@H]2O)[C@H](O)CO)C(=O)N[C@@H](CC(C)C)C(=O)N2C[C@H](O)C[C@H]2C(=O)N[C@@H](Cc2c[nH]c3ccccc23)C(=O)N[C@@H](CCNC[C@H](O)[C@@H](O)[C@H](O[C@H]2O[C@H](CO)[C@@H](O)[C@H](O)[C@H]2O)[C@H](O)CO)C(=O)N[C@@H](Cc2cn(CC(=O)O)c3ccccc23)C(=O)N1C [Example 2010] ({CH2CO}-Y[NMeA]NP[X29]L[Hyp]W[X30][Trp(1-CH2COOH)][NMeNle][NMeNle]LCG-NH2; thioether N-14) | 2.1 nM |

Continued, values first:

| IC50 | SMILES |
| --- | --- |
| 8.8 nM | CCCC[C@H]1C(=O)N(C)[C@@H](CCCC)C(=O)N[C@@H](CC(C)C)C(=O)N[C@H](C(=O)NCC(N)=O)CSCC(=O)N[C@@H](Cc2ccc(O)cc2)C(=O)N(C)[C@@H](C)C(=O)N[C@@H](CC(N)=O)C(=O)N2CCC[C@H]2C(=O)N[C@@H](CNC[C@H](O)[C@@H](O)[C@H](O[C@H]2O[C@H](CO)[C@@H](O)[C@H](O)[C@H]2O)[C@H](O)CO)C(=O)N[C@@H](CC(C)C)C(=O)N2C[C@H](O)C[C@H]2C(=O)N[C@@H](Cc2c[nH]c3ccccc23)C(=O)N[C@@H](CCN)C(=O)N[C@@H](Cc2cn(CC(=O)O)c3ccccc23)C(=O)N1C [Example 2011] ({CH2CO}-Y[NMeA]NP[X29]L[Hyp]W[Dab][Trp(1-CH2COOH)][NMeNle][NMeNle]LCG-NH2; thioether N-14) |
| 0.7 nM | CCCC[C@H]1C(=O)N(C)[C@@H](CCCC)C(=O)N[C@@H](CC(C)C)C(=O)N[C@H](C(=O)NCC(N)=O)CSCC(=O)N[C@@H](Cc2ccc(O)cc2)C(=O)N(C)[C@@H](C)C(=O)N[C@@H](CC(N)=O)C(=O)N2CCC[C@H]2C(=O)N[C@@H](CNC[C@@H](O)[C@H](O)[C@H](O)CO)C(=O)N[C@@H](CC(C)C)C(=O)N2C[C@H](O)C[C@H]2C(=O)N[C@@H](Cc2c[nH]c3ccccc23)C(=O)N[C@@H](CCNC[C@@H](O)[C@H](O)[C@H](O)CO)C(=O)N[C@@H](Cc2cn(CC(=O)O)c3ccccc23)C(=O)N1C [Example 2012] ({CH2CO}-Y[NMeA]NP[X67]L[Hyp]W[X68][Trp(1-CH2COOH)][NMeNle][NMeNle]LCG-NH2; thioether N-14) |
